Assay [1] has as its target Vasopressin 1 (V1) receptor (Homo sapiens, UniProt P37288). In words: Vasopressin 1 (V1) Receptor Binding. To be noted: competition with 1.5 nM 3H-vasopressin, platelet membrane preparation from blood of normal subjects, 15 minutes at 30° C.
Assay [2] concerns the target human V2 receptor (Homo sapiens, UniProt P30518). In words: Vasopressin 2 (V2) Receptor Binding. To be noted: competition with 0.5 nM 3H-vasopressin, membranes of CHO cells expressing human V2 receptor, 2 hours at 22° C.

The term IC50 denotes the point on the concentration scale where inhibition reaches its midpoint.

Counter-ions that a name gives are not always drawn.

Chain of human V2 receptor (P30518 whole entry): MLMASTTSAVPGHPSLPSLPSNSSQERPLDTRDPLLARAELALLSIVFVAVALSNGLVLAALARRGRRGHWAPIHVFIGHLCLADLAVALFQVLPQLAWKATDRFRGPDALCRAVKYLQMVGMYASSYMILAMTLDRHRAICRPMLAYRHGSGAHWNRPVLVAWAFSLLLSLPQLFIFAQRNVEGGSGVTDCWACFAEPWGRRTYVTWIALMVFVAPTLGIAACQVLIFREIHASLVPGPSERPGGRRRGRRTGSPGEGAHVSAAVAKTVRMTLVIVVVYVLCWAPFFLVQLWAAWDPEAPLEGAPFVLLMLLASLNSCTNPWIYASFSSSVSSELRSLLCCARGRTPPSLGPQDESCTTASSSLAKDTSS
Chain of Vasopressin 1 (V1) receptor (P37288 whole entry): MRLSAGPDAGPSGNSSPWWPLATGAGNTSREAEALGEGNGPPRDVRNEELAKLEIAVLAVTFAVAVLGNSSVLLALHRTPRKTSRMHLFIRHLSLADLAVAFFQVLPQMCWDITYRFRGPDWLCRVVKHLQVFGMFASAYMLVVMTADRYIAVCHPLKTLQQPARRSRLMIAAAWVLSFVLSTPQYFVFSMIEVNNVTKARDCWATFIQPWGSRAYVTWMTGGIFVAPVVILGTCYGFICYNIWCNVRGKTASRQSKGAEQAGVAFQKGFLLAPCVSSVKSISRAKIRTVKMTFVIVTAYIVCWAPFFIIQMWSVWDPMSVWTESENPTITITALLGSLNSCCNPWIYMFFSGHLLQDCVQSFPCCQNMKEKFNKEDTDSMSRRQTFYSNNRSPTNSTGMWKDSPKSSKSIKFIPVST

Take `Cc1ccc(N(C)C(=O)c2ccc(NC(=O)c3ccccc3N)cc2)c(OCCCCCC(=O)O)c1` [5-2), 4-(2-Aminobenzoyl)amino-N-methyl-N-[2-(5-carboxypent-1-yloxy)-4-methylphenyl]benzamide]: the IC50 was 51 nM in assay [1] and 1300 nM in assay [2].

On to `CCOC(=O)CCCCCOc1cc(C)ccc1N(C)C(=O)c1ccc(NC(=O)c2ccccc2OCCCN)cc1` [17-20), 4-[2-(3-Aminoprop-1-yl)oxybenzoyl]amino-N-[2-(5-ethoxycarbonylpent-1-yl)oxy-4-methyl]phenyl-N-methylbenzamide hydrochoiride], for which the IC50 in assay [1] was 31 nM; in assay [2], 1300 nM.

In the case of `CN1CCN(C(=O)CCCCCOc2ccccc2N(C)C(=O)c2ccc(NC(=O)c3ccccc3OCCCN)cc2)CC1` [Example 16, 4-[2-[(3-aminoprop-1-yl)oxy]benzoyl]amino-N-methyl-N-[2-[5-(4-methylpiperazin-1-yl)carbonylpent-1-yloxy]phenyl]benzamide dihydrochloride], the IC50 turned out to be 14 nM in assay [1] and 1400 nM in assay [2].

These data come from US6054457A, “Benzamide derivatives and their use as vasopressin antagonists” (Fujisawa Pharmaceutical Co., Ltd., priority 1995, dated 2000).
